Publication PMC8997165, “Transcriptional CDK Inhibitors as Potential Treatment Option for Testicular Germ Cell Tumors” (Cancers, 2022)
Values belong to the compound of their own block, whether it stands above or below them.

Columns and labels:
Type in all cases: cell-based, human
2102EP cells = test: XTT cell viability assay, 2102EP
Experimental: (§1) The following cell lines were used 2102EP, 2102EP-R, NCCIT, NCCIT-R (all ECs), TCam2 (seminoma cell line), FS1 (Sertoli cell line) and MPAF (human adult fibroblast cell line). Cells were cultivated as described previously. In brief, the ECs were cultivated in Dulbecco’s modified Eagle’s medium (DMEM) supplemented with 10% fetal bovine serum (FBS), 1% penicillin–streptomycin and […] L-glutamine. FS1 cells were grown in DMEM supplemented with 20% FSB, 1% penicillin–streptomycin, 200 mM L-glutamine and 1% nonessential amino acids (NEAA). MPAF cells were cultured in DMEM supplemented with 10% FBS, 1% penicillin–streptomycin, 200 mM L-glutamine and 1% NEAA. TCam2 cell line was cultured in RPMI medium supplemented with 10% FBS, 1% penicillin–streptomycin and […] L-glutamine. All cell lines were kept at 37 °C and 7.5% CO2. 2102EP and NCCIT were a kind gift from Prof. Dr. L. Looijenga (Princess Máxima Center for Pediatric Oncology, Utrecht, The Netherlands). Cisplatin-resistant lines 2102EP-R and NCCIT-R were obtained from PD Dr. F. Honecker (Breast and Tumor Center, ZeTup Silberturm, St. Gallen, Switzerland). MPAFs were a kind gift from […] (Bonn University, Institute of Reconstructive Neurobiology, Bonn, Germany). FS1 cells were obtained from Prof. Dr. V. Schumacher (Boston Children’s Hospital, Department of Urology; Harvard Medical School, Department of Surgery, Boston, MA, USA).
(§2) The assay was performed based on the reduction in XTT tetrazolium salt as described previously. In summary, 3000 cells were seeded per well of a 96-well cell culture plate in 100 µL of cell culture medium. The next day, cells were treated with CDK inhibitor or CDK degrader for 24/48/72 h. For XTT assay, 0.6 mg/mL XTT sodium salt was dissolved in cell culture medium (DMEM or RPMI) and supplemented with 25 µM electron carrier N-methyl dibenzopyrazine methyl sulfate (PMS). A total of 50 µL of XTT/PMS was added to each well and incubated for 4 h at 37 °C, 7.5% CO2. For readout, absorption was measured at 450 nm and 650 nm. Specific XTT signal (450 nm) was subtracted by nonspecific absorbance (650) and blank (cell culture medium). Averages of technical triplicates were calculated, and treated sample was referenced to the corresponding dimethyl sufoxide (DMSO) control. Experiment was repeated several times to obtain biological replicates. For statistical analysis, two-tailed Student’s t-test was applied.

2102EP-R cells = test: XTT cell viability assay, 2102EP-R (cisplatin-resistant)
Experimental: as §1, §2

NCCIT cells = test: XTT cell viability assay, NCCIT
Experimental: as §1, §2

NCCIT-R cells = test: XTT cell viability assay, NCCIT-R (cisplatin-resistant)
Experimental: as §1, §2

TCam2 cells = test: XTT cell viability assay, TCam2
Experimental: as §1, §2

FS1 cells = test: XTT cell viability assay, FS1 Sertoli control
Experimental: as §1, §2

MPAF cells = test: XTT cell viability assay, MPAF fibroblast control; details: for IC50: XTT viability
Experimental: as §1, §2

TGCT cell lines = test: XTT cell viability assay, summarised over TGCT tumor cell lines
Experimental: as §1, §2

2102EP and NCCIT cells = test: 7AAD/AnnexinV FACS apoptosis analysis, 2102EP and NCCIT; details: 10 nM, 24 and 48 h
Experimental: (§3) Cells were seeded in 6-well cell culture plates (1.5 × 10^5 cells/well). […] For cell cycle analysis, cells were harvested after 20 h of treatment and resuspended in PBS. Ice-cold methanol was added dropwise while shaking until 70% methanol v/v was reached. Cells were incubated for 2 h at 4 °C and subsequently washed twice with cold PBS. Staining (2 µg/mL Hoechst-33342, 50 µg/mL RNaseA in PBS) was performed for 30 min at 37 °C. The cell cycle distribution was measured in an FACS Canto (BD BioSciences, Heidelberg, Germany) and analyzed using FlowJo™ v10.8 Software (BD BioSciences, Heidelberg, Germany). For apoptosis analysis, PE AnnexinV Apoptosis Detection Kit with 7-AAD (BioLegend, San Diego, CA USA) was used according to the manufacturer’s manual. Measurement was performed in an FACS Canto while analysis was performed in the corresponding BD FACSDiva software^TM (BD BioSciences, Heidelberg, Germany). Two-tailed Student’s t-test was applied for calculation of significance.

[1] = test system: TCam2, FS1 and MPAF cells; test: 7AAD/AnnexinV FACS apoptosis analysis, TCam2, FS1 and MPAF; details: 10 nM, 24 and 48 h
Experimental: as §3

[2] = test system: TGCT and control cell lines; test: Hoechst-FACS cell cycle analysis; details: 20 h; NVP2 and SY0351 10 nM, YKL-5-124 and THZ531 100 nM
Experimental: as §3

SMILES: COC[C@@H](C)N[C@H]1CC[C@H](Nc2cc(-c3cccc(NCC4(C#N)CCOCC4)n3)c(Cl)cn2)CC1 [NVP2]
IC50 (2102EP cells; 24 h): 503 nM
IC50 (2102EP cells; 48 h): 10.5 nM
IC50 (2102EP cells; 72 h): 6.1 nM
IC50 (2102EP-R cells; 24 h): 884 nM
IC50 (2102EP-R cells; 48 h): 11.2 nM
IC50 (2102EP-R cells; 72 h): 8.6 nM
IC50 (NCCIT cells; 24 h): 90.6 nM
IC50 (NCCIT cells; 48 h): 40.7 nM
IC50 (NCCIT cells; 72 h): 6.5 nM
IC50 (NCCIT-R cells; 24 h): 104 nM
IC50 (NCCIT-R cells; 48 h): 17.1 nM
IC50 (NCCIT-R cells; 72 h): 12.2 nM
IC50 (TCam2 cells; TCam2, 24 h): 216 nM
IC50 (TCam2 cells; TCam2, 48 h): 60 nM
IC50 (TCam2 cells; TCam2, 72 h): 16.1 nM
IC50 (FS1 cells; FS1, 24 h): 98.2 nM
IC50 (FS1 cells; FS1, 48 h): 33.5 nM
IC50 (FS1 cells; FS1, 72 h): 8.9 nM
IC50 (MPAF cells; 24 h): > 1000 nM
IC50 (MPAF cells; 48 h): > 1000 nM
IC50 (MPAF cells; 72 h): > 1000 nM
viability (XTT) (TGCT cell lines; TGCT cell lines and FS1 cell line, 10 nM): effectively reduced the viability
apoptosis, fold compared to the control (2102EP and NCCIT cells): up to 5.5 fold
fold change in apoptotic cells [1]: up to 3.3 fold
effect on cell cycle [2]: only mild effects on the cell cycle

IC50 (TGCT cell lines; Homo sapiens, 72 h, tumor (TGCT) cell lines, XTT viability, read-out: IC50 at 72 h, range over tumor cell lines): 7.5 to 273 nM
SMILES: CN1CC[C@H](c2c(O)cc(O)c3c(=O)cc(-c4ccccc4Cl)oc23)[C@H](O)C1 [Flavo-Piridol, flavopiridol]
IC50 (2102EP cells; Homo sapiens, 24 h): > 1000 nM
IC50 (2102EP cells; Homo sapiens, 48 h): 39.9 nM
IC50 (2102EP cells; Homo sapiens, 72 h): 18 nM
IC50 (2102EP-R cells; Homo sapiens, 24 h): > 1000 nM
IC50 (2102EP-R cells; Homo sapiens, 48 h): 21.9 nM
IC50 (2102EP-R cells; Homo sapiens, 72 h): 7.56 nM
IC50 (NCCIT cells; Homo sapiens, 24 h): 710 nM
IC50 (NCCIT cells; Homo sapiens, 48 h): 21.9 nM
IC50 (NCCIT cells; Homo sapiens, 72 h): 34.1 nM
IC50 (NCCIT-R cells; Homo sapiens, 24 h): 639 nM
IC50 (NCCIT-R cells; Homo sapiens, 48 h): 107 nM
IC50 (NCCIT-R cells; Homo sapiens, 72 h): 43.3 nM
IC50 (TCam2 cells; Homo sapiens, TCam2, 24 h): > 1000 nM
IC50 (TCam2 cells; Homo sapiens, TCam2, 48 h): 582 nM
IC50 (TCam2 cells; Homo sapiens, TCam2, 72 h): 273 nM
IC50 (FS1 cells; Homo sapiens, FS1, 24 h): > 1000 nM
IC50 (FS1 cells; Homo sapiens, FS1, 48 h): 696 nM
IC50 (FS1 cells; Homo sapiens, FS1, 72 h): 91.5 nM
sensitivity (XTT viability) (MPAF cells): almost resistant
IC50 (MPAF cells; Homo sapiens, Fibroblast, 24 h): > 1000 nM
IC50 (MPAF cells; Homo sapiens, Fibroblast, 48 h): > 1000 nM
IC50 (MPAF cells; Homo sapiens, Fibroblast, 72 h): > 1000 nM
viability (XTT) (TGCT cell lines; EC cell lines (2102EP, 2102EP-R, NCCIT, NCCIT-R), 50 nM): strong decrease in viability

SMILES: CN(C)C/C=C/C(=O)Nc1ccc(C(=O)Nc2cccc(Nc3ncc(Cl)c(-c4c[nH]c5ccccc45)n3)c2)cc1 [THZ1]
IC50 (2102EP cells; 24 h): 95.6 nM
IC50 (2102EP cells; 48 h): 26.3 nM
IC50 (2102EP cells; 72 h): 6.7 nM
IC50 (2102EP-R cells; 24 h): 235 nM
IC50 (2102EP-R cells; 48 h): 16.3 nM
IC50 (2102EP-R cells; 72 h): 9.9 nM
IC50 (NCCIT cells; 24 h): > 1000 nM
IC50 (NCCIT cells; 48 h): 92.9 nM
IC50 (NCCIT cells; 72 h): 9.3 nM
IC50 (NCCIT-R cells; 24 h): 929 nM
IC50 (NCCIT-R cells; 48 h): 145 nM
IC50 (NCCIT-R cells; 72 h): 16.2 nM
IC50 (TCam2 cells; TCam2, 24 h): > 1000 nM
IC50 (TCam2 cells; TCam2, 48 h): > 1000 nM
IC50 (TCam2 cells; TCam2, 72 h): 847 nM
IC50 (FS1 cells; FS1, 24 h): > 1000 nM
IC50 (FS1 cells; FS1, 48 h): > 1000 nM
IC50 (FS1 cells; FS1, 72 h): > 1000 nM
IC50 (MPAF cells; 24 h): > 1000 nM
IC50 (MPAF cells; 48 h): > 1000 nM
IC50 (MPAF cells; 72 h): > 1000 nM
